Results taken from US11884675B2, “Heterocyclic compounds as triggering receptor expressed on myeloid cells 2 agonists and methods of use” (AMGEN INC., priority 2020, dated 2024).
Marks after values point to notes of the source that are not given here.

Tests used:
[1] = tested on: hTREM2-CV knock-in transgenic mice; test: IP-10 and CCL2 expression in brain and plasma of mice after acute dosing (TREM2 target engagement, MSD V-PLEX); format: in vivo, mouse; details: 24 hours
Description: IP-10 expression in the brain and plasma of mice after administration of Example 192 and a TREM2 agonist antibody
To test TREM2 target engagement in an acute dosing paradigm using the compound of Example 192 (5-(4-chloro-2-fluorophenyl)-2,3-dimethyl-7-((2R,4S)-2-(1-methyl-1H-pyrazol-4-yl) tetrahydro-2H-pyran-4-yl)pyrido[3,4-b]pyrazine), hTREM2-CV knock-in transgenic mice were dosed using oral gavage (PO) twice a day (0 and 10 h) followed by sample collection at 24 hours. 6 animals received the compound of Example 192 at 50 mg/kg, and 6 animals received vehicle only (2% Hydroxypropyl Methylcellulose, 1% Tween-80 in PBS). In the same experiment, an anti-hTREM2 Antibody Ab-1 was dosed intraperitoneally (IP) at 100 mg/kg (control was a non-binding matched IgG isotype control). Ab-1 is a murinized version of a human TREM2 agonist antibody, first described as an engineered variant of antibody 13E7 in PCT Application Publication WO2018/195506A1. Ab-1 has an HC according to SEQ ID NO:9, an LC according to SEQ ID NO:10, and exemplifies an anti-TREM2 antibody having the CDRs according to SEQ ID NOS:1-6. Twenty-four hours following the zero-hour dose, mice were humanely euthanized for blood collection prior to cardiac perfusion with PBS and brain harvest. Brains were micro dissected into right and left regions of interest (including the cortex and hippocampus) for independent processing of cytokine and mRNA expression profiles. Whole blood was collected into EDTA-containing vials to prevent coagulation, and centrifuged to isolate the plasma fraction before storage at −80° C. Right and left hemisphere cortices were flash frozen in liquid nitrogen and stored at −80° C. before lysis and homogenization.
Plasma and brain lysates were analyzed for IP-10 (CXCL10) and CCL2 (MCP1) expression using a Meso Scale Discovery (MSD) multi-array reader and V-PLEX kits per manufacturer's protocols.
The upregulation of IP-10 was more robust, and so IP-10 levels were analyzed in plasma from the same experiment.

[2] = tested on: hTREM2-CV knock-in transgenic mice; test: Nanostring nCounter Murine Neuroinflammation panel, Cell Type Profiling scores in hippocampi; format: in vivo, mouse
Description: (§1) Nanostring analysis of gene expression profiles after administration of Example 192 and a TREM2 agonist antibody in a mouse model
(§2) To assess the impact of TREM2 agonism on cellular processes and pathways, the right hemisphere hippocampi from the acute dosing of the compound of Example 192 and […] Ab-1, as described in Example A3, were analyzed for gene expression changes. Cells from frozen hippocampi were lysed, and RNA was isolated. Key gene expression profiles were analyzed using the nCounter Murine Neuroinflammation panel of 770 genes related to inflammation in the CNS. Results of individual gene expression changes relative to the mean of several housekeeper genes were grouped in pathways of interest and assigned a relative score using the nSolver analysis software.
(§3) Nanostring nSolver software includes a module for Cell Type Profiling that identifies genes linked to cell type in an experiment. […] Pathway analysis was also performed. Genes associated with the adaptive immune response, innate immune response, microglia function, cytokine signalling, and cell cycle were all increased in hippocampi from animals treated with the compound of Example 192 and Ab-1. Table 22 reports the effects of the compound of Example 192 and Ab-1 on these genes, where the values reflect PC1 scores from principal component analysis of the gene set.

[3] = tested on: hTREM2-CV knock-in transgenic mice; test: Nanostring nCounter Murine Neuroinflammation panel, pathway analysis (PC1 scores) in hippocampi; format: in vivo, mouse
Description: as §1, §2, §3

hTREM2 = hTREM2 (Homo sapiens, UniProt Q9NZC2); test: TREM2 activity by cellular Syk phosphorylation (AlphaScreen/AlphaLISA) in TREM2/DAP12-HEK cells, used for Examples 1-305; format: cell-based; design: expressed in transfected cells; details: HEK293 Cells
Method in brief: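 Single-cell-cloned HEK293 cells overexpressing TREM2 and DAP12, seeded 20 h, exposed to test articles (1% final DMSO) for 45 min at room temperature. Lysates read for phospho-Syk (Tyr525/526) vs total Syk by AlphaScreen. Signal normalised as percent of control between isotype IgG and 100 nM anti-TREM2 antibody; 4-parameter logistic fit.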

[4] = Example 192 50 mg/kg PO at 0 and 10 h, Ab-1 100 mg/kg IP, compared to vehicle-treated animals
[5] = hippocampi after acute dosing, mean score (standard deviation)
[6] = right hemisphere hippocampi, acute dosing as in Example A3
[7] = PC1 score, mean score (standard deviation)

Sequence of hTREM2 (Q9NZC2 19-230): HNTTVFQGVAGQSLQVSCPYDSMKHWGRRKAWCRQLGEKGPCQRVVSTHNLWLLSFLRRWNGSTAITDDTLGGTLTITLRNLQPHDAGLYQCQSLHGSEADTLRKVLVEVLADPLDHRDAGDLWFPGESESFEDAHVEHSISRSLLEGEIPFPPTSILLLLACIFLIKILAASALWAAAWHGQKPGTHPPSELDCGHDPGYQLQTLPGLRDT
Sequence of hTREM2 (O43914 22-113 partner): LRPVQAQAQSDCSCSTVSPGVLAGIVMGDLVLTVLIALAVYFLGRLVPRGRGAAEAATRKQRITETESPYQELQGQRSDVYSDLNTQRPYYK

EC50 (hTREM2): ≤ 50 nM
hTREM2 Emax (hTREM2): ++++ (Emax>250)
Compound: Cc1nc2cc([C@H]3CCO[C@@H](c4cnn(C)c4)C3)nc(-c3ccc(Cl)cc3F)c2nc1C (single isomer, unassigned) [Example 192]
peripheral IP-10 levels in the plasma fraction ([1]; 50 mg/kg PO at 0 and 10 h): no apparent cytokine upregulation
CCL2 (MCP1) in cortical lysates [1, 4]: induced upregulation
IP-10 (CXCL10) in cortical lysates [1, 4]: induced upregulation
Microglia Score (Cell Type Profiling) [2, 5]: 6.82 (0.090) *
astrocyte score (Cell Type Profiling) [2, 5]: 8.86 (0.077)
neuron score (Cell Type Profiling) [2, 5]: 8.81 (0.185)
astrocyte score (Cell Type Profiling) [2, 6]: no change
microglia score (Cell Type Profiling, microglial-associated genes) [2, 6]: increase
neuron score (Cell Type Profiling) [2, 6]: no change
Pathway Score Adaptive Immune Response [3, 7]: 0.639 (0.929) *
Pathway Score Cell Cycle [3, 7]: 0.398 (0.414) *
Pathway Score Cytokine Signaling [3, 7]: 0.180 (0.514) *
Pathway Score Innate Immune Response [3, 7]: 0.490 (0.674) *
Pathway Score Microglia Function [3, 7]: 0.345 (0.908) *
genes associated with cell cycle ([3]; acute dosing as in Example A3): increased
genes associated with cytokine signalling ([3]; acute dosing as in Example A3): increased
genes associated with microglia function ([3]; acute dosing as in Example A3): increased
genes associated with the adaptive immune response ([3]; acute dosing as in Example A3): increased
genes associated with the innate immune response ([3]; acute dosing as in Example A3): increased
